Data from EPA's ToxValDB 9.5 (doi:10.2903/j.efsa.2016.4610).
Values after ≈ are worked out from the molar mass of the structure shown.

Columns and labels:
Folsomia candida = settings: chronic/long-term; duration: 28 days; reproduction
Tagia sp. = settings: chronic/long-term; growth
[1] = chronic
Anas platyrhynchos = settings: chronic/long-term
Apis mellifera = settings: acute, mortality
Cyprinodon variegatus = settings: acute; duration: 96 hours; mortality
Pimephales promelas = settings: chronic/long-term; duration: 35 days; reproduction
Poephila guttata = settings: acute; oral; unspecified; mortality
Xenopus laevis = settings: chronic/long-term; duration: 21 days; growth
Aphidius rhopalosiphi = assay: LR50; higher = less toxic; settings: acute; duration: 48 hours; mortality
Typhlodromus pyri = assay: LR50; higher = less toxic; settings: chronic/long-term; duration: 14 days; mortality

| SMILES | NOEC (Folsomia candida) [mg/kg] | NOEC (Tagia sp.) [mg/kg] | NOEC [1] [mg/L] | NOAEL (Anas platyrhynchos) [mg/kg-day] | LD50 (Apis mellifera; dermal) [µg/piece] | LD50 (Apis mellifera; oral, unspecified) [µg/piece] | LC50 (Cyprinodon variegatus) [µg/mL] | NOEC (Pimephales promelas) [mg/L] | LD50 (Poephila guttata) [mg/kg-day] | LD50 (Rattus norvegicus; acute, oral, mortality) [mg/kg-day] | NOAEL (Rattus norvegicus; developmental, development) [mg/kg-day] | NOEC (Xenopus laevis) [mg/L] | LR50 (Aphidius rhopalosiphi) [g/ha] | LR50 (Typhlodromus pyri) [g/ha] |
| --- | --- | --- | --- | --- | --- | --- | --- | --- | --- | --- | --- | --- | --- | --- |
| CC(=N)N(C)Cc1ccc(Cl)nc1 [Acetamiprid metabolite (IM-1-5)] | 12.5 | 62.5 |  |  |  |  |  |  |  |  |  |  |  |  |
| CC(=NC#N)N(C)Cc1ccc(Cl)nc1 [Acetamiprid] | 0.27 |  | 0.0011 | 9.5 | 9.26 | 8.85 | 100 (≈ 449 µM) | 9.4 | 5.7 | 146 | 2.5 | 2.6 | 2 | 29.7 |
